Assay [1] has as its target T1, CYP121 (Mycobacterium tuberculosis, UniProt P9WPP7). Nature of the assay: Inhibition of CYP121 activity: cyclo(L-Tyr-L-Tyr) transformation in the presence of added compound, RP-HPLC analysis. The class given is biochemical.
Target sequence in this assay (P9WPP7 2-396 limits assumed): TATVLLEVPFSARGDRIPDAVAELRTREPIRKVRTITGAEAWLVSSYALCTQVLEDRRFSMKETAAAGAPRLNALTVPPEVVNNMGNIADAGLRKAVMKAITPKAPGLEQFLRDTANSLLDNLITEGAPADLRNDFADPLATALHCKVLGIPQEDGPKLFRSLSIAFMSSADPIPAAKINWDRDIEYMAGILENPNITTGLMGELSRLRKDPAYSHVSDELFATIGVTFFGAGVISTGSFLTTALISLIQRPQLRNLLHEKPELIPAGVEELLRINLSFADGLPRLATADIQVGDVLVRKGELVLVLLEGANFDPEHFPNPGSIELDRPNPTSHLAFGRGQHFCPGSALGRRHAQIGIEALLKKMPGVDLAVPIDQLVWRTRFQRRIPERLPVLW
In assay [2] the target is T1, CYP121. As to the kind of experiment: Spectral binding titration of CYP121 by cyclodipeptide (UV/Vis absorbance spectroscopy, type I binding). To be noted: 2 µM CYP121, Tris-HCl 50 mM pH 7.6 10% glycerol; ΔA388-ΔA416 versus cyclodipeptide concentration; mean of four experiments; read-out: binding constant (Ks).
Assay [3] addresses T1, CYP121. As to the kind of experiment: CYP121 enzyme assay: transformation of cyclodipeptide with electron transport chain and NADPH, RP-HPLC analysis. The class given is biochemical. To be noted: 30°C; for transformation of cyclodipeptide by CYP121: ~0.1 mM cyclodipeptide, 5 µM CYP121, electron transport chain, 0-60 min.
Target sequence in this assay (P9WPP7 2-396 limits assumed): as above
The target in assay [4] is T1, CYP121. Nature of the assay: Co-crystallisation with CYP121 and X-ray structure of the complex. The following applies: co-crystals; 0.2 mM cyclo(L-Tyr-L-Phe), 0.8 mM cyclo(L-Tyr-L-Ala). The class given is binding.
Target sequence in this assay (P9WPP7 2-396 limits assumed): as above
Assay [5] has as its target Mycobacterium tuberculosis cytochrome P450 CYP121 (Mycobacterium bovis BCG Pasteur (100% identical to Mycobacterium tuberculosis H37Rv)) (UniProt P9WPP7). Nature of the assay: cell-based or functional assay.
The target is the same in assay [6]. Nature of the assay: spectrally estimated dissociation constant (Ks); UV/Vis titration of 2 µM CYP121, ΔA388-ΔA416 fitted to a hyperbola.

Chain of Mycobacterium tuberculosis cytochrome P450 CYP121 (Mycobacterium bovis BCG Pasteur (100% identical to Mycobacterium tuberculosis H37Rv)) (P9WPP7 whole entry): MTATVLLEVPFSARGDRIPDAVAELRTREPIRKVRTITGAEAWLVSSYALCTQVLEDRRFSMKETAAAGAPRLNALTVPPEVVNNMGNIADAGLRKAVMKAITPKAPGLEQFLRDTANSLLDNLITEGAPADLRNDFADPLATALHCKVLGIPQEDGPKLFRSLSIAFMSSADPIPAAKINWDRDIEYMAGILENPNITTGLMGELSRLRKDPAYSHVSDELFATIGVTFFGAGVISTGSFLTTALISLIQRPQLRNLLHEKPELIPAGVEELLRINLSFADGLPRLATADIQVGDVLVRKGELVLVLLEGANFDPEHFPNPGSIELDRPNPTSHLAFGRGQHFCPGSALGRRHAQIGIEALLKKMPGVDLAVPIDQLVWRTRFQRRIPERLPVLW

Consider `O=C1N[C@@H](Cc2ccc(O)c(O)c2)C(=O)N[C@H]1Cc1ccc(O)cc1` [cyclo(L-DOPA-L-Tyr), cyclo(L-3 or 5,4-dihydroxyphenylalanine-L-Tyr)], for which, in assay [1] (1.2 mM added cyclodipeptide, 60 min incubation at 30°C), the “inhibition of cyclo(L-Tyr-L-Tyr) transformation” value is recorded as “completely inhibits”. Further, the Kd in assay [2] was found to be 14.7 ± 1.5 µM. The “transformation of cyclodipeptide by CYP121” value in assay [3] (NADPH) is reported as “no transformation was detected”.

On to `O=C1N[C@@H](Cc2ccc(O)cc2)C(=O)N[C@H]1Cc1ccccc1` [cyclo(L-Tyr-L-Phe)], for which the “binding to CYP121 (crystal structure of the complex)” value in assay [4] is given as “bind to CYP121”.

Consider `O=C1N[C@@H](Cc2ccc(O)cc2)C(=O)N[C@H]1Cc1ccc(O)cc1` [cyclo(L-Tyr-L-Tyr)], for which the “time to complete conversion of cyclo(L-Tyr-L-Tyr) by CYP121” value in assay [3] (no inhibitor added) is reported as “less than 30 min”. Further, the “rate of cyclo(L-Tyr-L-Tyr) transformation” value in assay [3] (in vitro conditions, exogenous electron transport chain, NADPH) is listed as 3.8 nmoles/min/nmole of CYP121. Also, the “transformation of cyclodipeptide by CYP121” value in assay [3] (NADPH) is “complete consumption”.

The compound cyclo(L-Tyr-L-Trp) (peptide) returned an inhibition of cyclo(L-Tyr-L-Tyr) transformation by CYP121 with 1.2 mM cyclo(L-Tyr-L-Trp) (RP-HPLC) in assay [5] of 30.

With cyclo(L-Tyr-L-Tyr) (peptide), the Kd in assay [6] is 27.6 µM. This compound also yielded a rate of cyclo(L-Tyr-L-Tyr) transformation (nmoles/min/nmole of CYP121) in assay [5] of 3.8.

As to `O=C1N[C@@H](Cc2c[nH]c3ccccc23)C(=O)N[C@H]1Cc1ccc(O)cc1` [cyclo(L-Tyr-L-Trp)], the “initial cyclo(L-Tyr-L-Tyr) detected after 60 min incubation” value in assay [1] (0.11 mM cyclo(L-Tyr-L-Tyr), 1.2 mM cyclo(L-Tyr-L-Trp), 60 min, 30°C, completely absent after 30 min without inhibitor) is listed as around 30%. In addition, the Kd in assay [2] is 63.4 ± 8.8 µM. In addition, the “transformation of cyclodipeptide by CYP121” value in assay [3] (NADPH) was “can be transformed by CYP121, albeit less efficiently than cyclo(L-Tyr-L-Tyr)”.

Take `C[C@@H]1NC(=O)[C@H](Cc2ccc(O)cc2)NC1=O` [cyclo(L-Tyr-L-Ala)]: the “binding to CYP121 (crystal structure of the complex)” value in assay [4] is “bind to CYP121”.

(Values after patent publication EP2088143A1, “Novel inhibitors of mycobacterium tuberculosis complex cytochrome P450 CYP121” (priority 2008, dated 2009).)
